Test results as given in patent US6180656A, “Use of condensated (hetaryl-substituted) 1-benzal-3-pyrazol derivates for treating special diseases of the cardiovascular and the central nervous systems” (Bayer Aktiengesellschaft, priority 1996, dated 2001).

What was measured:
[1] = tested on: rabbit aorta rings; test: Vasorelaxant action in vitro (aorta rings precontracted with phenylephrine); conditions: Oryctolagus cuniculus; isolated rabbit aorta, phenylephrine contraction, 37° C., reduction of control contraction by 50%; read-out: Aorta IC 50
Procedure: (§1) To determine the cardiovascular action, the following investigations were carried out: in in vitro investigations on cells of vascular origin, the influence on guanylate cyclase-dependent cGMP formation was tested with and without NO donors. The vasorelaxant action was determined on rabbit aorta rings precontracted with phenylephrine. The hypotensive action was investigated in anaesthetized rats.
Vasorelaxant Action in vitro
1.5 mm wide rings of an isolated rabbit aorta are placed individually under a pretension into 5 ml organ baths containing carbogen-aerated Krebs-Henseleit solution at a temperature of 37° C. The contractile force is amplified and digitalized, and recorded in parallel on a linear recorder. To generate a contraction, phenylephrine is added to the bath cumulatively in increasing concentration.
After several control cycles, the substance to be investigated is investigated in each further passage in increasing dose in each case and the contraction is compared with the height of the contraction achieved in the last previous passage. From this, the concentration is calculated which is necessary to reduce the height of the control value by 50% (IC50). The standard administration volume is 5 μl.

[2] = tested on: anaesthetized rats; test: Blood pressure measurements on anaesthetized rats; format: in vivo; conditions: anaesthetized male Wistar rats; for Max. blood pressure decrease: time 60 min
Procedure: as §1
Blood Pressure Measurements on Anaesthetized Rats
Male Wistar rats having a body weight of 300-350 g are anaesthetized with thiopental (100 mg/kg i.p.). After tracheotomy, a catheter is inserted in the femoral artery for blood pressure measurement. The substances to be tested are administered orally in various doses as a suspension in Tylose solution by means of stomach tube.

[3] = target: T1, soluble guanylate cyclase (Sus scrofa, UniProt A0A4X1U7N1+A0ACM8Q7I6); test: Stimulation of soluble guanylate cyclase in primary endothelial cells (intracellular cGMP, radioimmunological); format: cell-based; conditions: 10 min, test substance 1 μM, primary endothelial cells from pig aorta, NOSYNTH, stimulation buffer with or without NO donor (SNP 1 μM), read-out: % cGMP increase (NOSYNTH)
T1 construct: endogenous in cells; host or cells: primary endothelial cells from pig aorta
T1 sequence (A0A4X1U7N1 1-619): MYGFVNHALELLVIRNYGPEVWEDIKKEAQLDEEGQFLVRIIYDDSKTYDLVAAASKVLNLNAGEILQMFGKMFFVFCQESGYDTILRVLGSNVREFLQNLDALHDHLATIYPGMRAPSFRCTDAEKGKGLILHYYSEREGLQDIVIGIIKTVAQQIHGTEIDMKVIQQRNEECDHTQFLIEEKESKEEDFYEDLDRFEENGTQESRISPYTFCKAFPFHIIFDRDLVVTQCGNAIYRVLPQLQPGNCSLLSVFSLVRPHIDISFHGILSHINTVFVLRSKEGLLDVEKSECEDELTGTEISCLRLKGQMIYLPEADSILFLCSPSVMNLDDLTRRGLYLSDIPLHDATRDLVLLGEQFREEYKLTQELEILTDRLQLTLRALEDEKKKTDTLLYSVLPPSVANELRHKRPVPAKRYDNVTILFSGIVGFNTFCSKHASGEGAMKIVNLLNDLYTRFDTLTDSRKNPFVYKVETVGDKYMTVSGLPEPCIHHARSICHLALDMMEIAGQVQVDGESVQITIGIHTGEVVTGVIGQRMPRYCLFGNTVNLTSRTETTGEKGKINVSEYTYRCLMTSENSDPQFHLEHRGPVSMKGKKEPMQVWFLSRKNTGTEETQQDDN
T1 sequence (A0ACM8Q7I6 1-688): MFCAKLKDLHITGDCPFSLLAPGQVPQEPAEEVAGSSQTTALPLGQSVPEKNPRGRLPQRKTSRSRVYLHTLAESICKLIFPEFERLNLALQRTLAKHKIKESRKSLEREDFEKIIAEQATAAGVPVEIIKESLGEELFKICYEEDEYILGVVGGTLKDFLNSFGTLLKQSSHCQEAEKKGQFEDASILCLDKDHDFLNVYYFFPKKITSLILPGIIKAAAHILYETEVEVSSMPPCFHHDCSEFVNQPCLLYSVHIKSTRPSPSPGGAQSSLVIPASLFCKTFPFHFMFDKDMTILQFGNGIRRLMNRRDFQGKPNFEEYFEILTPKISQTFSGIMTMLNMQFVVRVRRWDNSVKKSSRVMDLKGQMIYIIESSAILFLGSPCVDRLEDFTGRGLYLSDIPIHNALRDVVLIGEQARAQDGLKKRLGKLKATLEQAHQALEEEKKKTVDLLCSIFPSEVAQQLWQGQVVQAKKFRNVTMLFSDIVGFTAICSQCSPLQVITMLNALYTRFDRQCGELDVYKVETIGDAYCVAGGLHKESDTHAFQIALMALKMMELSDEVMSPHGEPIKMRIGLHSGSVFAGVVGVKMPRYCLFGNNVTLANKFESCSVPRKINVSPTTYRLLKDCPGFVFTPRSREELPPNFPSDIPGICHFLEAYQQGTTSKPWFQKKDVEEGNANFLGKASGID
Procedure: as §1
Stimulation of Soluble Guanylate Cyclase in Primary Endothelial Cells
Primary endothelial cells were isolated from pig aortas by treatment with collagenase soln. The cells were then cultured in culture medium until confluence was achieved. For the investigations, the cells were passaged, inoculated into cell culture plates and subcultured until confluence was achieved. To stimulate the endothelial guanylate cyclase, the culture medium was aspirated and the cells were washed once with Ringer's solution and incubated in stimulation buffer with or without NO donor (sodium nitroprusside, SNP, 1 μM). Following this, the test substances (final concentration 1 μM) were then pipetted onto the cells. After the end of the incubation time of 10 minutes, the buffer solution was aspirated and the cells were lysed at -20° C. for 16 hours. The intracellular cGMP was then determined radioimmunologically.

Compound	IC50 [1] [µM]	activation at 1 µM [3] [%]	Time (of max. blood pressure decrease table) ([2]; 10 mg/kg oral) [min]	Max. blood pressure decrease ([2]; 10 mg/kg oral) [mm Hg]	Time (of max. blood pressure decrease table) ([2]; 30 mg/kg oral) [min]	Max. blood pressure decrease ([2]; 30 mg/kg oral) [mm Hg]
COc1cccc(Cn2nc(-c3ccc(CO)o3)c3ccccc32)c1 [Example 2]	–	72	–	–	–	–
OCc1ccc(-c2nn(Cc3cccc(F)c3)c3ccccc23)o1 [Example 4]	9.2	413	–	–	–	–
OCc1ccc(-c2nn(Cc3ccccc3F)c3cc(F)ccc23)o1 [Example 7]	–	734	–	–	–	–
COc1cccc(Cn2nc(-c3ccc(CO)o3)c3ccc(F)cc32)c1 [Example 8]	–	28	–	–	–	–
OCc1ccc(-c2nn(Cc3ccccc3)c3ccccc23)s1 [Example 11]	–	14	–	–	–	–

More lines, main results first:

IC50 [1] [µM]	activation at 1 µM [3] [%]	Compound	Time (of max. blood pressure decrease table) ([2]; 10 mg/kg oral) [min]	Max. blood pressure decrease ([2]; 10 mg/kg oral) [mm Hg]	Time (of max. blood pressure decrease table) ([2]; 30 mg/kg oral) [min]	Max. blood pressure decrease ([2]; 30 mg/kg oral) [mm Hg]
4.1	> 1000	OCc1ccc(-c2nn(Cc3ccccc3F)c3ccccc23)o1 [Example 1, 1-(2-Fluorobenzyl)-3-(5-hydroxymethylfuran-2-yl)-indazole]	60	-14	60	-18
16	250	OCc1ccc(-c2nn(Cc3ccc(F)cc3)c3ccccc23)o1 [Example 3]	–	–	–	–
–	238	Cc1ccc(-c2nn(Cc3ccccc3)c3ccccc23)o1 [Example 10]	–	–	–	–
10	> 906	OCc1ccc(-c2nn(Cc3ccccc3)c3ccccc23)o1 [Example 14, reference compound]	60	-10	60	-18
